According to US5041432A, “Steroid derivatives useful as hypocholesterolemics” (E. I. Du Pont de Nemours and Company, priority 1990, dated 1991):

What was measured:
[1] = system: de novo cholesterol synthesis; experiment: Decreasing de novo cholesterol synthesis (radiolabeled acetate incorporation into cholesterol in CHO cells); format: cell-based, Chinese Hamster (CHO cells); settings: Cricetulus griseus, 19 h, % of control culture (Control = 100)
Experimental: The ability of the compounds of Formula I to decrease de novo cholesterol synthesis was tested by measuring the incorporation of radiolabeled acetate into cholesterol synthesized in CHO cells. To conduct this experiment, CHO cells were plated at 0.3×10^6 cells per 15×60 mm tissue culture dish in 5 mL of McCoy's modified medium (Gibco Laboratories) containing 1% Cab-O-Sil delipidated FBS and incubated for 48 hours at 37° in a 5% CO2, 95% air environment. Test compounds in a 2.5% suspension of BSA (fatty acid free) in ethanol were then added to the cultures such that the final ethanol and BSA concentrations were 0.5% and 2.5%, respectively. Control cultures received ethanol and BSA alone. […]
The cells were harvested by washing the cells twice with 5 mL of cold PBS and scraping the cells into 1 mL PBS. […] The petroleum ether fractions were dried under nitrogen, resuspended in ethanol, counted and analyzed by reverse phase HPLC at 45° using an Ultrashpere Octyl column (from Altex Scientific Inc., Berkeley, Calif.) with a mobile phase of acetonitrile:methanol:water (44:44:12). The amount of cholesterol synthesis is measured by the amount of radiolabeled acetate incorporated into the cholesterol peak. The percent of cholesterol synthesis in the treated culture is calculated based upon the control culture.

[2] = molecular target: T1, Lanosta-8,24-dien-3β-ol 14α-methyl demethylase (Rattus norvegicus, UniProt Q64654); experiment: Lanosta-8,24-dien-3β-ol 14α-Methyl Demethylase Inhibition Assay; format: biochemical
T1 construct: rat hepatic microsomal preparations; from tissue; host or cells: rat liver microsomes
T1 sequence (Q64654 1-503): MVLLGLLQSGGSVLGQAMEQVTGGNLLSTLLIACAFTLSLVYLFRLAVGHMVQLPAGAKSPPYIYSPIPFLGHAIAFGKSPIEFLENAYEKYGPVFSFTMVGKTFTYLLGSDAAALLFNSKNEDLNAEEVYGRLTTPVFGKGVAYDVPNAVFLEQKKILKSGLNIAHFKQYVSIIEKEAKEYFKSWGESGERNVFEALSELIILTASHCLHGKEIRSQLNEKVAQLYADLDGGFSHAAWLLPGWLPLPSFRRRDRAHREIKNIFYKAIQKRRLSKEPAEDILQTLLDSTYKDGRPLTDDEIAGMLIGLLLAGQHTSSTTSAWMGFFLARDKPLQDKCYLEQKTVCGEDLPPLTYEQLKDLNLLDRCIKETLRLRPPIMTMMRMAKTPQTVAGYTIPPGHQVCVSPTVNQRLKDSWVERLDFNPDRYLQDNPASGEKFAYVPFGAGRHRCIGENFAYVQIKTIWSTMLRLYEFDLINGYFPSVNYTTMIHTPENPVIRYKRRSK
Experimental: B. Lanosta-8,24-dien-3β-ol 14α-Methyl Demethylase Inhibition Assay
Lanosta-8,24-dien-3β-ol 14α-methyl demethylase activity was determined in rat hepatic microsomal preparations as described in Trzaskos et al., J. Biol. Chem., 261, 16937-16942 (1986). Specifically, test compounds were added to assay mixtures as detergent suspensions with substrate employing 5 mg Triton WR-1339, 100 μM lanost-8-en-3β-ol substrate, and test compounds ranging from 0 to 100 μM. The inhibitor/substrate/detergent suspension was incubated with 2 mg microsomal protein for 5 min at 37° followed by a 10 min incubation initiated by the addition of cofactors required for the reaction. […] Inhibition values are expressed as the amount of compound required to inhibit lanosta-8,24-dien-3β-ol 14α-methyldemethylase activity by 50% relative to that of the controls.

[3] = system: 3-Hydroxy-3-Methylglutaryl Coenzyme A Reductase (HMGR); experiment: HMGR Suppression Assay (HMGR activity in digitonin-permeabilized CHO cells); format: cell-based, Chinese Hamster (CHO cells); settings: tested under the same conditions as Table I
Experimental: The ability of the compounds of Formula I to suppress the activity of HMGR, the rate limiting enzyme of cholesterol biosynthesis, was tested as follows. Chinese Hamster Ovary (CHO) cells were divided twice weekly and were maintained in McCoy's 5A medium supplemented with 1% Cab-O-Sil delipidated Fetal Bovine Serum (FBS) (obtained from Gibco Laboratories, Chagrin Falls, Ohio). […] Control cells were treated in an identical fashion to those which received test compound, except they were incubated with the BSA and ethanol suspension only.
Specifically, the medium in each well was aspirated and the cells rinsed with a 50 mM solution of phosphate buffered saline (PBS). One mL of 30 μg/mL of digitonin in CSK buffer (prepared using 10 mM Pipes [piperazine-N,N'-bis(2-ethansulfonic)acid'], 100 mM KCl, 2.5 mM MgCl2, 300 mM sucrose, 1 mM EGTA, pH 6.8) was added to each well and incubated for 10 min at 22° to permeabilize the cells. […] HMGR activity was measured directly by adding 75 μL of PIB buffer (50 mM potassium phosphate, 1 mM Na2 EDTA, 10 mM dithiothreitol, pH 7.4) to each well and incubating the cells for 30 minutes at 37° as described above. […] The assay mixture was incubated for 30 min at 37° and terminated by the addition of 70 μL of [^3 H]-mevalonic acid (35,000 DPM/assay), 0.15 mg/mL in 3 N HCl. The reaction was left to lactonize for an additional 30 min at 37° or overnight at room temperature.
Reaction products were separated by thin layer chromatography on silica gel G (obtained from Analtech, Newark, Del.) developed in an unsaturated environment with acetone:benzene (3:2, v:v). The band corresponding to mevalonolactone was identified by exposure to iodine vapor and was scraped into counting vials. […] Corrections for recovery and blank values were made for each sample. […] Cellular protein was solubilized from culture dishes by the addition of 20 μL of 16 N KOH and assayed directly for protein amount. Suppression values are expressed as the amount of compound required to suppress HMGR activity by 50% relative to that of the controls.

| SMILES | activity at 1 µM [1] [%] | IC50 ([2]; rat hepatic microsomes, 100 μM lanost-8-en-3β-ol substrate, test compounds 0 to 100 μM) [nM] | effect on measured HMGR activity [3] | effect on lanosta-8,24-dien-3β-ol 14α-methyl demethylase activity ([2]; tested under the same conditions as Table I) | substrate for the demethylase enzyme [2] |
| --- | --- | --- | --- | --- | --- |
| C=CC(O)[C@@]12CC[C@H]([C@H](C)CCCC(C)C)[C@@]1(C)CCC1=C2CC[C@H]2C(C)(C)[C@@H](O)CC[C@]12C (single isomer, unassigned) [Compound 11a, 4,4-dimethyl-14α-(1'-hydroxy-2'-propenyl)-5α-cholest-8-en-3β-ol] | 1 | 800 |  |  |  |
| CC(C)CCC[C@@H](C)[C@H]1CC[C@H]2[C@@H]3CC=C4C[C@@H](O)CC[C@]4(C)[C@H]3CC[C@]12C [cholesterol] |  |  | without effect | without effect |  |
| CC(C)CCC[C@@H](C)[C@H]1CC[C@@]2(C)C3=C(CC[C@]12C)[C@@]1(C)CC[C@H](O)C(C)(C)[C@@H]1CC3 [lanost-8-en3β-ol, lanost-8-en-3β-ol] |  |  | without effect |  | clearly served as substrates |
| CC(C)=CCC[C@@H](C)[C@H]1CC[C@@]2(C)C3=C(CC[C@]12C)[C@@]1(C)CC[C@H](O)C(C)(C)[C@@H]1CC3 [lanosta-8,24-dien-3β-ol] |  |  | without effect |  | clearly served as substrates |
